For data set [1], the system named is BE(2)-C. Briefly: Cell survival and LD50 determination (trypan blue exclusion). Conditions: value (std err). Type of data set: cell-based, human. As for the experimental part: (§1) The final concentration of DMSO was maintained at ≤0.5% in all flasks including controls. With each treatment group, duplicate flasks of control cells were grown and harvested alongside treated cells. Each treatment was tested in duplicate in at least two independent experiments (n=4-6 per concentration). Cell numbers were determined after 1 hour, 24 hours, and 48 hours of exposure to drugs using the trypan blue exclusion assay. Aliquots of cell suspension were mixed with a 0.2% solution of trypan blue in PBS (1/1; v/v) and counted in Cellometer® (Nexcelom Bioscience, Lawrence, Mass.). […] The reproductive integrity was also evaluated using a clonogenic survival assay.

The subject of data set [2] is SK-N-SH. Described as above. Type of data set: cell-based, human. Conditions: value (std err). As for the experimental part:
as §1

For data set [3], the system named is U-87 MG. The data set is described as above. Type of data set: cell-based, human. Conditions: value (std err). As for the experimental part: as §1, with “Compounds 1 or 2 dissolved in DMSO were added to the appropriate cell culture medium in concentrations ranging from 0 μM to 1.5 μM. Higher concentrations were not evaluated as the amount of DMSO required to maintain the drugs' solubility was not compatible with good cell culture conditions. The final” for “The final”
(§2) Results Cell survival and LD50 determination for compounds 1 and 2 on four human cancer cell lines—BE(2)-C(neuroblastoma), SK-N-SH cells (neuroblastoma), U-87 MG (glioblastoma), and U137 MG.

The test system of data set [4] is U137 MG. Described as above. Type of data set: cell-based, human. Conditions: value (std err). The method, then: as §1, with “Compounds 1 or 2 dissolved in DMSO were added to the appropriate cell culture medium in concentrations ranging from 0 μM to 1.5 μM. Higher concentrations were not evaluated as the amount of DMSO required to maintain the drugs' solubility was not compatible with good cell culture conditions. The final” for “The final”
as §2

For data set [5], the system named is BE(2)-C neuroblastoma cells. The data set can be described thus: Cell survival with drug without and with ionizing radiation (XRT). Type of data set: cell-based, human. As for the experimental part:
(§3) Alongside all treatment groups, which included: drug alone (n=4), 4 Gy XRT alone (n=4), and drug+XRT (n=4), quadruplicate flasks of controls cells in medium containing DMSO were grown and harvested under identical culture conditions. Each treatment was tested in at least two independent experiments. The final concentration of DMSO was maintained at 0.5% in all flasks including controls. Cells grown in monolayers (50%-60% confluent) were irradiated at the dose of 4 Gy delivered at the dose rate of 1.36 Gy/minute in a Mark I 68A irradiator (J. L. Shepherd & Associates, San Fernando, Calif.). At designated times after treatment, cells were harvested, their numbers determined and plated at 200 and 500 live cells in duplicate or quadruplicate T25 flasks per each treatment. Cells were left undisturbed for ˜7 days after which time fresh medium was added and colonies were allowed to grow for up to 3 weeks. Colonies were washed with PBS, fixed with methanol, and stained with crystal violet. Briefly, colonies were washed with 5 mL ice-cold PBS, followed by 5 mL PBS/methanol (1:1; v/v), and fixed in 5 mL methanol for 10 minutes. Methanol was removed and flasks were left open to dry for a few hours. Crystal violet (3 mL; 0.25% in 1:1 PBS/methanol) was added to each flask to stain cells. After approximately 10 minutes, the dye was removed, flasks were rinsed with tap water followed by distilled water and were left to dry. Colonies were counted by two independent observers using the ImageJ software.

The subject of data set [6] is BE(2)-C cells. The data set can be described thus: Clonogenic survival (reproductive integrity) with drug without and with XRT. Type of data set: cell-based, human. The method, then: as §3
In data set [7] the test system is human glioblastoma cells lines. Briefly: Cytotoxicity of the nonradioactive analogue. Type of data set: cell-based. The method, then: (§4) Cytotoxicity and radiosensitizing properties of the nonradioactive analogue were determined. Specifically, the cytotoxicity of the nonradioactive analogue N-[5-(3′-iodobenzoyl)-1H-benzimidazol-2-yl]carbamate was measured.
The subject of data set [8] is human neuroblastoma cell lines. Briefly: Cytotoxicity of the nonradioactive analogue. Type of data set: cell-based. The method, then:
as §4

A short description of data set [9]: Solubility in common solvents. Type of data set: physicochemical.

Take `COC(=O)Nc1nc2cc(C(=O)c3cccc(I)c3)ccc2[nH]1` [Compound 2, Methyl N [5-(3′-iodobenzoyl)-1H-benzimidazol-2-yl]carbamate]: the LD50 was 0.02 (0.01) uM in data set [1], 1.29 (0.24) uM in data set [2], 0.20 (0.06) uM in [3] and 2.62 (1.35) uM in data set [4]. Moreover, in data set [5] (1 micromolar combined with 4 Gy ionizing radiation (XRT)), the cancer cells surviving turned out to be 4.8%. In [5] (1 micromolar, 24 hour exposure), the cancer cells killed is listed as 89.8%. Moreover, the “surviving fractions, cytotoxicity” value in data set [5] (SK-N-SH and BE(2)-C cells, 1 μM, without and with XRT, 24 hours after treatment, FIG. 8A) was “very cytotoxic to the cancer cells, particularly in combination with irradiation”. Besides, the “clonogenic survival, cytotoxicity” value in [6] (BE(2)-C, 1 μM for 24 hours, without and with 4 Gy, FIGS. 8B and 8C) is “very cytotoxic to the cancer cells, particularly in combination with irradiation”. Further, the “cells surviving, reproductive integrity assay” value in [6] (combined treatment of 4 Gy XRT and drug) is reported as below 0.9%; in data set [6] (drug alone) it was 7.8%. Moreover, the cytotoxicity entry is “micromolar range” in data set [7] and “low nM range” in data set [8]. For the same compound, the “solubility in common solvents” value in data set [9] is “quite low solubility”.
